The values below come from patent US20220133767A1, “TARGETING MICRORNAS TO OVERCOME DRUG TOLERANCE AND RESISTANCE” (Beth Israel Deaconess Medical Center, Inc., priority 2019, published 2022).

For data set [1], the system named is H1975 cells. As to the kind of experiment: Cell viability of osimertinib-treated H1975 cells co-incubated with SDH inhibitor dimethyl malonate. Type of data set: cell-based, human. To be noted: 100 nM osimertinib co-incubated with 0, 0.03, 0.1 mM DMM for 3 days. The protocol:
(§1) Compound Treatment. Cell viability experiments were performed in 96-well format using opaque white plates (Corning). For 2D monolayer cell cultures and organoids, cells were plated into 96-well plates with 100-2000 cells per well in three-four replicates on day 0. Twenty-four hours after seeding, cells or organoids were exposed to compounds at indicated concentrations for 72 hours. Cellular ATP levels (as a surrogate for viability) were measured using CeliTiter-Glo (Cat #G7570, Promega) or CeliTiter-Glo 3D (Cat #G9681, Promega). For co-treatment experiments, spent medium was removed 24 hours after cell seeding and replaced with medium containing a single concentration of the modulator of interest (for example, osimertinib).

For data set [2], the system named is H1975 organoids. Put plainly: Osimertinib treatment response (cell viability) on H1975 organoids transfected with LNA miR-147b inhibitor. In kind it is cell-based, human. To be noted: 120 nM LNA miR-147b inhibitor. The protocol:
(§2) For 3D organoid formation, single-cell suspensions (2000 cells/well/20 μl) were co-plated with geltrex (25 μl) in 96-well non-treated clear plates (Corning, cat #08-772-53). The plate was incubated for 20 minutes at 37° C. followed by adding 100 μl complete growth media. The complete growth media was advanced DMEM/F12 with glutamax (1×), HEPES (1×), 1.25 mM N-Acetylcysteine, 10 mM Nicotinamide, 10 μM Forskolin, B27 (1×), 5 ng/ml Noggin, 100 ng/ml FGF10, 20 ng/ml FGF2, 50 ng/ml EGF, 10 ng/ml PDGFA, 10 ng/ml FGF7, 1% penicillin-streptomycin, and 10 μM Y-27632. Y-27632 was used only for the initial three days because Y27632 is a rock inhibitor preventing apoptosis of single cells (Watanabe et al., Nat. Biotechnol. 25(6):681-686, 2007). PDGFA and FGF7 were not used until day 7 in organoid cultures because they are important for alveolarization during late lung development (Padela et al., Pediatr. Res. 63(3):232-8, 2008; Bostrom et al., Cell 85(6):863-873, 1996). FGF10 is essential for maintenance of lung progenitor cells and branching morphogenesis as well as tissue homeostasis in the adult lung (Sekine et al., Nat. Genet. 21(1):138-141, 1999). […] The organoids were photographed with a microscope (Evos Fla., Life Technology) and their size was measured by ImageJ. […]

Another data set concerns PDX_LU_10 organoids. Put plainly: Pretreatment response on lung PDX organoids (organoid size). In kind it is cell-based, human. From the text:
Patient-derived Xenograft Tumor Specimens. Tumor samples from patient-derived xenografts (PDXs) were generated at The Jackson Laboratory and the Yale Cancer Center by subcutaneous implantation of previously passaged tumors in up to 5 female NSG mice. When tumor samples reached 1000 mm^3 they were shipped to the laboratory in frozen media of DMEM with 90% FBS and 10% DMSO in dry ice. Samples were washed with cold phosphate buffer saline (PBS) with antibiotics (Sigma-Aldrich, St. Louis, Mo.) three times, chopped with a sterile blade, and incubated in 0.001% deoxyribonuclease (DNase) (Sigma-Aldrich, St. Louis, Mo.), 1 mg/ml collagenase/dispase (Roche, Indianapolis, Ind.), 200 U/ml penicillin, 200 μg/ml streptomycin, 0.5 μg/ml amphotericin B (2% antibiotics, Sigma) in DMEM/F12 medium (GIBCO, Grandlsland, N.Y.) at 37° C. water bath for 3 hours with intermittent shaking. After incubation, the suspensions were repeatedly triturated, passed through 70 μm and 40 μm cell-strainers (BD Falcon, San Jose, Calif.), and centrifuged at 122 g for 5 minutes at 4° C. Cells were resuspended in red blood cell lysis buffer (eBioscience, San Diego, Calif.) for 4 minutes at room temperature with intermittent shaking, before resuspension in serum-free medium. After lysis, cell viability was evaluated by trypan blue dye exclusion.
(§3) The plate was incubated for 20 minutes at 37° C. followed by adding 100 μl complete growth media. […] The media was changed every three days in 24 days. The organoids were photographed with a microscope (Evos Fla., Life Technology) and their size was measured by ImageJ.
Transfection by LNAs in vitro. Tumor cells were plated at 2,000 cells in complete growth medium in a 96 well plate to reach 50-60% confluence. […] The transfected cells were harvested after culturing for 48 and 72 hours.

For data set [3], the system named is pseudohypoxia genes in H1975 cells. Put plainly: qRT-PCR analysis of hypoxia (pseudohypoxia) gene expression. Type of data set: cell-based, human. As for the experimental part: Transfection by LNAs in vitro. Tumor cells were plated at 2,000 cells in complete growth medium in a 96 well plate to reach 50-60% confluence. 0˜120 nM of fluorescein-conjugated LNA anti-miR-147b (Sequence: […]; SEQ ID NO: 890) (Cat #4100977-011) or negative control (Sequence: TAACACGTCTATACGCCCA; SEQ ID NO: 891) (Cat #199006-011, Exiqon) with PureFection (System Biosciences) were applied for transfection. The transfected cells were harvested after culturing for 48 and 72 hours.
On the technique in general: Real-time PCR tracks product formation cycle by cycle.

Data set [4] concerns H1975 organoids. As to the kind of experiment: Fractional viability of H1975 organoids treated with osimertinib, LNA miR-147b inhibitor, DMOG, R59949 or combinations for 14 days. In kind it is cell-based, human. The protocol:
as §2

The next data set concerns PC9 cells. Put plainly: Single cell clonogenicity / frequency of drug-tolerant clones. To be noted: 0.1, 0.4 and 2 μM gefitinib (all three groups), 14 days, vehicle 8.3%±0.7%.
The next data set concerns HCC827 cells. The protocol: as §1
(§4) Lentiviral-mediated miRNA and VHL Overexpression or Knockdown Infection.

Data set [5] concerns H1975 organoids. Put plainly: Organoid number after lentiviral miR-147b inhibition and/or osimertinib. In kind it is cell-based, human. The protocol:
as §3, §4

Data set [6] deals with H1975 cells. As to the kind of experiment: Cell viability of H1975 cells with HIF1A or EPAS1 knockdown or HIF1A A588T treated with osimertinib. Type of data set: cell-based, human. Conditions: 3 days. The protocol:
HIF1A and EPAS1 shRNAs and cDNA transfection. H1975 cells were seeded in a 6-well plate at 100,000 cells per well one day prior to transfection. A mixture of 2.5 μg pGFP-C-shLenti vector targeting HIF1A (OrGene, Cat #320380), EPAS1 (OriGene, Cat #TL315484), scrambled negative control (Cat #TR30021), lentiviral vector targeting HIF1A mutantA588T (OrGene, Cat #RC402571), control vector and 7.5 μL of PureFection (System Biosciences, Cat #LV750A-1) were used for transfection. The transfected cells were selected and maintained in 0.5 μg/ml puromycin (for shRNAs) or 600 μg/ml neomycin (for HIF1A A5887) in DMEM containing with 10% FBS for 9 days. Then the stable cells were passaged into 96-well plate at 3,000 cells per well followed by treatment with 100 nM osimertinib for 3 days. hsa-HIF1A targeting sequences: shRNA 1: […] (SEQ ID NO: 892), shRNA 2: […] (SEQ ID NO: 893), shRNA 3: […] (SEQ ID NO: 894), shRNA 4: […] (SEQ ID NO: 895). hsa-EPAS1 targeting sequences: shRNA 1: […] (SEQ ID NO: 896), shRNA 2: […] (SEQ ID NO: 897), shRNA 3: […] (SEQ ID NO: 898), shRNA 4: […] (SEQ ID NO: 899).

“Also recorded” adds a separate entry of the source.

Take `COC(=O)CC(=O)OC` [DMM, dimethyl malonate]: the “drug-tolerance to osimertinib (cell viability)” value with H1975 cells [1] is listed as “promotes drug-tolerance; also recorded: effectively rescued”.

Turning to “LNA miR-147b inhibitor: fluorescein-conjugated LNA anti-miR-147b, sequence AGCAGAAGCATTTCCGCACA (SEQ ID NO: 890), Cat #4100977-011 (LNA-modified, fluorescein conjugated, pattern and position not given here)”, the “decrease of IC50 for osimertinib / increase of sensitivity of drug-tolerant organoids to osimertinib, compared to scrambled control” value in the data set with H1975 organoids [2] stood at 30 fold. Moreover, the “decrease of osimertinib-tolerance compared with control cells” value with PDX_LU_10 organoids (90 nM LNA miR-147b inhibitor on day 0 and day 2 + 25 nM osimertinib, day 8) is 80%. In the data set on PDX_LU_10 organoids (LNA miR-147b inhibitor pretreatment + osimertinib, day 8 to day 14), the “PDX organoids volume increase, as % of that in control cells with the single agent of osimertinib” value is listed as “no more than 10%”. In addition, the “expression levels of pseudohypoxia genes” value in data set [3] (H1975 cells, 90 nM LNA miR-147b inhibitor, three days, vs scrambled control) is on record as “reduced expression levels”. For the same molecule, the “osimertinib-tolerance (fractional viability)” value with H1975 organoids [4] (osimertinib 25 nM + LNA-anti147b 90 nM) is recorded as “reduced osimertinib-tolerance”.

For the molecule `O=c1c2ccccc2[nH]c(=S)n1CCN1CCC(=C(c2ccc(F)cc2)c2ccc(F)cc2)CC1` [R59949], the “pseudohypoxia gene levels reduced by LNA-miR-147b inhibitor, on co-treatment with R59949” value in [3] (H1975 cells, 90 nM LNA miR-147b inhibitor + 30 μM R59949, three days) is on record as “further inhibited”. Besides, the “expression of pseudohypoxia genes” value in [3] (H1975 cells, single dose of 30 μM R59949 vs vehicle) is listed as “downregulation”.

Regarding `COC(=O)CNC(=O)C(=O)OC` [DMOG, dimethyloxaloylglycine], the “pseudohypoxia gene levels reduced by miR-147b knockdown, on co-treatment with DMOG” value in [3] (H1975, 90 nM LNA miR-147b inhibitor + 10 μM DMOG) was “rescued significantly”. In addition, in data set [3] (H1975, single dose of 10 μM DMOG vs vehicle), the “expression of pseudohypoxia genes” value is “upregulated expression”. In the data set on H1975 organoids [4] (osimertinib 25 nM, LNA-anti147b 90 nM, DMOG 10 μM), the “osimertinib-tolerance (fractional viability) on co-treatment with DMOG” value is reported as “rescued reduced osimertinib-tolerance”.

As for `COc1cc2ncnc(Nc3ccc(F)c(Cl)c3)c2cc1OCCCN1CCOCC1` [gefitinib], the “frequency of colony formation” value in the data set with PC9 cells is 3.6%±0.3.

Take `C=CC(=O)Nc1cc(Nc2nccc(-c3cn(C)c4ccccc34)n2)c(OC)cc1N(C)CCN(C)C` [osimertinib]: in the data set with HCC827 cells, the “enhancement of drug-tolerance at the half-maximum inhibitory concentration (IC50) by enforced overexpression of miR-147b” value was 60 fold. Moreover, in the data set on PDX_LU_10 organoids (25 nM osimertinib on day 1 and 4, day 6), the “decrease of size of the tumor organoids” value was determined as 50%. In addition, the “increase (recovery) of organoid size” value in the data set on PDX_LU_10 organoids (25 nM osimertinib on day 1 and 4, day 14) worked out at 40%. Further, in the data set on H1975 organoids [5], the “decrease of total number of organoids compared with the control group” value is “two-fold”. Moreover, in the data set on H1975 cells [6] (100 nM osimertinib), the “increase of drug-tolerance towards osimertinib upon overexpression of HIF1A A588T” value is on record as “up to two-fold”. In the data set on H1975 cells [6] (lentiviral shRNAs against HIF1A, 100 nM osimertinib), the “increase of cell sensitivity towards osimertinib upon HIF1A knockdown” value is on record as “up to 2.6 fold”. The “drug sensitivity towards osimertinib upon HIF2A knockdown” value in the data set on H1975 cells [6] (lentiviral shRNAs against HIF2A/EPAS1, 100 nM osimertinib) was “did not change”.
